According to PMC3836681 (Journal of molecular biology, 2012):

Assays:
Format in all cases: binding
Bll5953 = Bll5953 (Bradyrhizobium diazoefficiens, UniProt Q89HN7); assay: fluorescence thermal shift; conditions: 10 µM protein, 1000 µM ligand
RPA4029 = RPA4029 (Rhodopseudomonas palustris, UniProt Q6N2M1); assay: fluorescence thermal shift; conditions: 10 µM protein, 1000 µM ligand
SMb20568 = SMb20568 (Sinorhizobium meliloti, UniProt Q92TN0); assay: fluorescence thermal shift; conditions: 10 µM protein, 1000 µM ligand
RPB1579 = RPB1579 (Rhodopseudomonas palustris, UniProt Q2IZS1); assay: fluorescence thermal shift; conditions: 10 µM protein, 1000 µM ligand
RPA0668 [1] = biological target: T1, RPA0668 (Rhodopseudomonas palustris, UniProt G3XCQ4); assay: fluorescence thermal shift; conditions: 10 µM protein, 1000 µM ligand
RPD1586 [2] = biological target: T2, RPD1586 (Rhodopseudomonas palustris, UniProt Q13AR6); assay: X-ray crystal structure […] Å; conditions: SeMet protein
RPA0668 [3] = biological target: T1, RPA0668; assay: X-ray crystal structure […] Å; conditions: SeMet protein, 5 mM sodium PHB in crystallization
RPA0668 [4] = biological target: T1, RPA0668; assay: X-ray crystal structure […] Å; conditions: SeMet protein, 5 mM sodium BEZ in crystallization
RPD1586 [5] = biological target: T2, RPD1586; assay: X-ray crystal structure […] Å; conditions: SeMet protein, 5 mM sodium VLA in crystallization

O=C(O)c1ccc(O)c(O)c1 [DHB, 3,4-dihydroxybenzoate]
ΔTm (Bll5953): the preferred ligands (DHB, VLA) are the same for each protein
ΔTm (RPA4029): the preferred ligands (DHB, VLA) are the same for each protein
ΔTm (SMb20568): equivalent thermal stabilization with 4-hydroxybenzoate (PHB) and DHB
ΔTm (RPB1579): the preferred ligands (DHB, VLA) are the same for each protein

O=C(O)c1cc(O)c(O)c(O)c1 [gallic acid]
ΔTm (SMb20568): exhibits a greater ΔTm with gallic acid

O=C(O)c1cccc(O)c1 [3-hydroxybenzoate]
ΔTm (SMb20568): increased protein stability of SMb20568 with 3-hydroxybenzoate or gallic acid

O=Cc1ccccc1 [benzaldehyde]
ΔTm (RPA0668 [1]): excellent thermal stabilization is observed for aromatic compounds with an aldehyde or carboxyl group

O=C(O)c1ccc(O)cc1 [PHB, 4-hydroxybenzoate]
X-ray crystal structure 2.22 Å; fluorescence thermal shift (RPD1586 [2]): RPD1586 protein from the Ic subgroup was crystallized with PHB, DHB, and VLA
X-ray crystal structure 1.40 Å; fluorescence thermal shift (RPA0668 [3]): RPA0668 has been determined in complex with the two most preferred ligands BEZ and PHB
ΔTm (SMb20568): equivalent thermal stabilization with 4-hydroxybenzoate (PHB) and DHB

O=C(O)c1ccccc1 [BEZ, benzoate]
X-ray crystal structure 1.84 Å; fluorescence thermal shift (RPA0668 [4]): RPA0668 has been determined in complex with the two most preferred ligands BEZ and PHB

COc1cc(C(=O)O)ccc1O [VLA, 4-hydroxy-3-methoxybenzoate]
ΔTm (Bll5953): the preferred ligands (DHB, VLA) are the same for each protein
ΔTm (RPA4029): the preferred ligands (DHB, VLA) are the same for each protein
X-ray crystal structure 1.86 Å; fluorescence thermal shift (RPD1586 [5]): RPD1586 protein from the Ic subgroup was crystallized with PHB, DHB, and VLA
ΔTm (RPB1579): the preferred ligands (DHB, VLA) are the same for each protein
